Measured values as given in a melting point compilation (Tetko et al.; mined from patent text by program, amines drawn as free bases though some values may be those of a salt).
Residues, ends and D or L forms follow the SMILES beside them. *: point of attachment. Piv = CC(C)(C)C(=O)*

Structure (SMILES) | melting point
Cc1cc(-c2ccc(-c3c(Cc4ccccc4)oc4ccccc34)cc2)cc(C)c1OS(=O)(=O)c1ccc(C(=O)O)c(O)c1 | 165 to 167 °C
O=C(O)CCCC(=O)Nc1ccc(N2CCN(C3(c4ccc(-c5ccccc5)cc4)C(=O)NC(=O)NC3=O)CC2)cc1 | 268 to 269 °C
CC(C)(C)OC(=O)c1sc(Oc2ccc3c(c2)OCO3)c2c1CCc1cnoc1-2 | 165 to 166 °C
CCOC(=O)C1=C(C)Nc2nc(N3CCOCC3)nc(N3CCOCC3)c2C1c1ccccc1 (stereo unspecified) | 178 °C
COc1cc2[nH]c(=O)c3c(c2cc1OC)CCN(CCC1CCCCC1)C3 | 195 to 198 °C
Clc1ccc(C#Cc2ccc(C#Cc3cc4ccccc4s3)s2)cc1 | 189 to 191 °C
CCOC(=O)CCSc1nnsc1-c1ccc(C)cc1 | 68.5 to 69.5 °C
OC(CCl)Cn1c2ccccc2c2cc(-c3ccc4c(c3)c3ccccc3n4CC(O)CCl)ccc21 (stereo unspecified) | 152 to 153 °C
CC(C)C=CC(CC1CCCCC1)NC(=O)OC(C)(C)C (racemic) | 74 °C
CCCc1c(CSc2ncccc2O)ccc(C(C)=O)c1O | 126 °C
COc1ccc(-c2[nH]nc3c2C(=O)c2c(NC(=O)Cc4cccc(OC)c4)cccc2-3)cc1 | > 300 °C
CCc1nc2c(NC(=O)C(C)C)nc3ccccc3c2n1CCCCNS(C)(=O)=O | 122 to 124 °C
CC(=O)Nc1nc(CCc2ccc(N)cc2)c(C(=O)NCc2ccc([N+](=O)[O-])cc2)s1 | 120 to 121 °C
CCOC(=O)c1ccc(-c2nc(CCl)c(C)o2)o1 | 117 to 118 °C
CCOC(=O)C(=O)NC(=O)N1CC1C#N (stereo unspecified) | 104 to 106 °C
CC1Cc2c(cc(C(C)(C)C)c(O)c2C(C)(C)C)O1 (stereo unspecified) | 86.8 °C
COCC(COc1noc2ccc(Cl)cc12)NC=O (stereo unspecified) | 90 to 92 °C
C#CCCCCC(=O)Nc1nc2nn(C)cc2c2nc(-c3ccco3)nn12 | 208 to 215 °C
CCc1nc(-c2cccc(C)c2)c(-c2ccnc(NC(=O)C3CCCCC3)c2)s1 | 98 to 100 °C
CCc1cc(C)nc2c(C)ccc(N)c12 | 60 to 62 °C
Nc1nc(N)c(C(=O)N=CNN2CCSCC2)nc1Cl | 234 to 236 °C

Structure (SMILES) | melting point
C=C(Nc1nc(-c2ccccc2)c(-c2nc3ccccc3c(=O)n2-c2ccc(C)cc2)s1)c1ccco1 | 231 to 232 °C
Clc1ccn2cc(Cl)nc2c1 | 153 to 154 °C
Cc1nc(-c2ccc(C(F)(F)F)cc2)sc1CSc1ccc2oc(C(=O)O)cc2c1 | 207 to 209 °C
CCCCCCCNC(=O)Nc1ccccc1C=Cc1cc(C(C)(C)C)c(O)c(C(C)(C)C)c1 | 162 to 164 °C
COC(=O)c1csc(CCCc2coc3nc(N)nc(N)c23)c1 | 156 to 157 °C
CC1(C)CCN(c2cccc(-c3cnc4[nH]cc(C(=O)C(C)(C)C)c4n3)c2)C1 | 233 to 235 °C
NCc1c([N+](=O)[O-])ccc(N2CCCC2)c1Cl | 71 to 73 °C
CCCn1c(=O)c2[nH]c(-c3ccc(C=C(C(=O)OCC)C(=O)OCC)o3)nc2n(CCC)c1=O | 220 to 222 °C
OCC1(CO)COCCNCCOCCCOCCNCCO1 | 137 to 140 °C
CCCN1CCc2[nH]c3ccc4scc(-c5ccccc5)c4c3c2C1 | 187 to 188 °C
CS(=O)(=O)c1ccc(-c2sc(-c3cccs3)nc2-c2ccc(F)cc2)cc1 | 194 to 195 °C
COc1ccccc1C(=CC=O)c1ccccc1OC | 59.5 to 61.5 °C
NC(=O)c1cc(F)c(NC2CCNCC2)cc1F | 188 to 190 °C
O=c1c2cccc3c2n(c(=O)n1CC(O)CO)-c1cc(C(F)(F)F)ccc1S3=O (stereo unspecified) | 224 to 225 °C
CCCOC(=Nc1sc(Cl)cc1C#N)OCCC | 55 to 57 °C
Nc1ccc(-c2ccc(-c3nc(N)nc(N)n3)cc2)cc1 | > 250 °C
CC(NC1CCC(=O)NC1c1ccc(F)cc1)c1cc(C(F)(F)F)cc(C(F)(F)F)c1 (stereo unspecified) | 120 °C
CCC[C@H]1CC[C@H](c2ncc(C(=O)OCC)c(O)n2)CC1 | 156 to 157 °C
N#Cc1ccc(NCC(F)(F)F)cc1C(F)(F)F | 132 to 134 °C
CC(C)Oc1ccc(CCCOc2cc(CCC(=O)O)n(C)n2)c(OCc2ccc(Cl)cc2Cl)c1 | 125 to 127 °C
COc1cc(C)c(C(=O)c2c(C)cncc2Br)c(OC)c1OC | 88 to 93 °C

Structure (SMILES) | melting point
CCOC(=O)/C=C/c1cccc(-c2c(CC(=O)Nc3ccc(F)cc3C(F)(F)F)c(=O)oc3cc(Cl)c(C)cc23)c1 | 193 to 196 °C
Cc1nc(N)nc(N)c1OCCCOc1ccccc1C(F)(F)F | 132 to 134 °C
O=C(O)C(=O)Nc1nccs1 | 174 to 177 °C
CCC1(O)C(C)=CC(=O)N1c1ccccc1 (stereo unspecified) | 97 to 100 °C
CSc1ccc(Oc2ccc([N+](=O)[O-])cc2)c(C)c1 | 81.6 to 84.4 °C
Cn1nc(-c2ccccc2)c(Oc2ccc(N)cc2)c1-c1ccccc1 | 167 to 169 °C
CC(C(=O)O)c1ccc2cc(OCC=Cc3ccccc3)ccc2c1 (stereo unspecified) | 175 to 177 °C
CCn1c2c(c3cc(OC)c(OC)cc3c1=O)C(=O)c1cc3c(cc1-2)OCO3 | 291 to 293 °C
CCCOc1ccccc1-c1nc(C=O)c[nH]1 | 104 to 105 °C
O=C1C(=CNCCO)Cc2cc(Cl)ccc21 | 164 to 166 °C
CSc1cccc(-c2ccccc2[N+](=O)[O-])c1 | 42 to 43 °C
CCOC(=O)/C=C/c1ccc(OC)c(F)c1 | 39 to 41 °C
CCC=C1Cc2c3c(c(C)c(C)c2C1=O)OC(C(=O)O)C3 (stereo unspecified) | 229 °C
CON1CCC2(CC1)NC(=O)C(c1cc(Br)c(F)cc1C)=C2O | 229 to 230 °C
CC1(C)OC(=O)C(C)(N=Nc2ccc(F)cc2Br)C(=O)O1 | 92 to 93 °C
CCOC(=O)C1=C(C)NC(COC(=O)CCC(=O)O)=C(C(=O)OCC)C1c1ccccc1Cl (stereo unspecified) | 130 to 131 °C
Cc1cc(-n2nc(C(F)(F)F)cc2-c2ccc(-c3cscn3)cc2)ccc1S(C)(=O)=O | 147 to 149 °C
COc1nc(=O)[nH]cc1C | 196 to 199 °C
O=[N+]([O-])c1ccc(-c2ncnn2-c2ccc(F)cc2)cc1 | 132 to 134 °C
CC(CO)c1ccc(-c2ccc(F)cc2F)c(F)c1 (stereo unspecified) | 58 to 59 °C

Other lines, results leading:

melting point | Structure (SMILES)
91 to 93 °C | CCCOc1ccc(CSc2nc(SC)n(CC)c(=O)c2C)cc1
198 to 200 °C | COc1ccc([C@H]2Cc3c(cccc3[N+](=O)[O-])NC(=O)[C@H]2O)cc1 (relative stereo)
101 to 102 °C | COC(=O)[C@@H]1C[C@@H](O)CN1C(=O)c1ccc(C#N)cc1
150 to 151 °C | CN(CCNc1ccc2ncc(-c3ccccc3)n2n1)C(=O)OC(C)(C)C
134 to 139 °C | CS(=O)(=O)c1ccc(-c2cnn(CC(F)(F)F)c(=O)c2NC2CCCC2)cc1
57 to 59 °C | COC(=O)c1ccc(SC)cc1N
179 to 180 °C | CN(C)C(=O)N1CCc2ccc(S(=O)(=O)NC(=O)NC3CCCC3)cc2CC1
192 °C | CN1CCN(C(=O)c2ccc(N)cc2N)CC1
56 to 58 °C | CNn1cccc1C(=O)c1ccccc1Cl
157 to 160 °C | CCCC(=O)c1cnc2ccc(O)cc2c1Cl
128 to 131 °C | CSC(Nc1cc(Cl)cc(Cl)c1)=C(C#N)S(=O)(=O)c1ccc(Cl)cc1
59 to 61 °C | COc1ccc2c(CC3=C(CC(=O)O)CCC3=O)cccc2c1C(F)(F)F
134 to 135 °C | C=Cc1cn(S(=O)(=O)c2ccc(C)cc2)c2ccc(C#N)cc12
267 to 268 °C | CC(C)(C)OC(=O)NCCCn1c2c(c3ccc(NC(=O)C(=O)O)cc3c1=O)C(=O)c1ccccc1-2
214 °C | COc1ccc(-n2c(C)nnc2S)cc1
247 to 248 °C | COCCN1C(=O)C(C)(C)C(=O)Nc2ccc(C#N)cc21
258 to 259 °C | CC(C)(C)C(NC(=O)c1ccc(Cl)cc1)Nc1c(Nc2ccc(Cl)nc2)c(=O)c1=O (stereo unspecified)
159 to 162 °C | Oc1ccc2c(c1O)Cc1ccccc1-2
118 to 120 °C | Cc1c2n(c3ccccc13)CCC2O (stereo unspecified)
147 to 149 °C | CCOc1cc([C@@H](CS(C)(=O)=O)N2Cc3cccc(NCC4CC4)c3C2=O)ccc1OC

melting point | Structure (SMILES)
66 °C | CC(C)(O)C1CCN(Cc2ccccc2)CC1
100 to 101 °C | COC(=O)c1ccc2cc(CCCc3cc4ccc(C(=O)OC)cc4o3)oc2c1
102 to 106 °C | COC(=O)c1ccc(C[C@H](NC(=O)OCc2ccccc2)C(=O)O)cc1
180 to 182 °C | COc1ccccc1[C@H](c1cccc2ccccc12)[C@@](C)(C#N)C(=O)N1CCN(c2cccc(Br)c2)CC1
186 to 187 °C | COC(=O)c1cncc(O)c1
226 °C | CC(=O)C(C)N1C(=O)N(c2ccc(N3CCN(c4ccc(O)cc4)CC3)cc2)C(=O)C1(C)C (stereo unspecified)
109 to 110 °C | CCC(CC)NC(=O)c1ccc(-c2scc(-c3ccccc3Cl)c2CC(=O)NC(=N)NCCCO)cc1
175 to 180 °C | N#Cc1ccc(Nc2nc(Cc3c(Cl)cccc3Cl)cc(NC(=O)CN3CCCCC3)n2)cc1
69 to 70 °C | CN(C)CCON=C1c2ccccc2C2CC2c2ccccc21 (stereo unspecified)
131 to 136 °C | Oc1ccc([C@H]2CC[C@H](NCC#Cc3ccccc3)CC2)cc1
100 to 102 °C | CS(=O)(=O)c1ccc(C(CC2CCCC2)C(=O)O)cc1C(F)(F)F (stereo unspecified)
135 to 137 °C | COC(=O)c1ccc(Cl)c(-n2nnn(C)c2=O)c1Cl
104 to 106 °C | CCOC(=O)c1ccc(OCC(O)COc2cccc(O)c2C(C)=O)cc1 (stereo unspecified)
219 to 220 °C | COC(=O)c1ccc(-c2nc(O)c(C)s2)cc1
153 to 155 °C | O=S(=O)(c1ccccc1)N1CCC(C(=NCc2ccccc2)c2ccc(F)cc2)CC1
144 to 145 °C | COc1ccc(C(=C/C=C/C(=O)NC(C)(C)CCCc2cccnc2)c2ccc(OC)cc2)cc1
262 °C | N#Cc1c(N2CCN(C(=O)c3cccs3)CC2)c2cc(F)cnc2n(CC(=O)c2ccccc2)c1=O
179 to 180 °C | CN(C)/C(=C1/Sc2ccccc2C1=O)c1ccccc1
94 to 96 °C | CCNC(=O)[C@@H]1CCCN1C(=O)[C@H](C)NC(=O)C(C)(C)C (Piv-Ala-Pro-NHEt)
